Test results as given in PMC11410929, “Biochemical and crystallographic studies of L,D-transpeptidase 2 from Mycobacterium tuberculosis with its natural monomer substrate” (Communications Biology, 2024).

System: LdtMt2^C354S
Type: biochemical, Mycobacterium tuberculosis

## GlcNAc-MurNAc-L-Ala-D-iGluNH2-m-DAPNH2-D-Ala-D-Ala [Compound 4]
  Product formation with LdtMt2^C354S: no product formation was observed
